According to patent US20040248887A1, “Inhibitors of cathepsin S” (IRM LLC, priority 2003, published 2004):

target: Cathepsin S (Homo sapiens, UniProt P25774); assay: Cathepsin S inhibition, fluorogenic peptide substrate kinetic assay; type: biochemical; details: Table II; Cathepsin S inhibition constant, pH5.5; read-out: Ki Cat. S
Method in brief: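 Reactions were started with 50 μM (final) acetyl-His-Pro-Val-Lys-aminocarbamoylcoumarin, and hydrolysis was followed by fluorescence (ex 380/em 450 nm). Apparent inhibition constants from enzyme progress curves were converted to Ki for competitive inhibitors using substrate concentration and Km.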

Cathepsin S, sequence (P25774 115-331, species assumed): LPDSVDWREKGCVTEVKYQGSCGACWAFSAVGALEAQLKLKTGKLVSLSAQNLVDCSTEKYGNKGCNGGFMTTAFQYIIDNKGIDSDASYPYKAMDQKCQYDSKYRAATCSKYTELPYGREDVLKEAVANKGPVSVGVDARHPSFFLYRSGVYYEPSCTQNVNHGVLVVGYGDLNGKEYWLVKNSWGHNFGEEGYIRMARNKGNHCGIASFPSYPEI

Row | Compound | Ki
1 | Cc1cccc(S(=O)(=O)N[C@@H](CC(C)(C)C)C(=O)N[C@@H](CC(=O)O)CN2CCc3cc(F)ccc32)c1 [Compound 262, (S,S)-3-[4,4-Dimethyl-2-(toluene-3-sulfonylamino)-pentanoylamino]-4-(5-fluoro-2,3-dihydro-indol-1-yl)-butyric acid] | < 100 nM
2 | Cc1cccc(C(=O)N[C@@H](CCC2CCCCC2)C(=O)NCCN2CCc3cc(F)ccc32)c1 [Compound 204, N-((S)-1-(2-(5-fluoroindolin-1-yl)ethylcarbamoyl)-3-cyclohexylpropyl)-3-methylbenzamide] | < 1000 nM
3 | CC(C)(C)OC(=O)N[C@@H](CC1CCCCC1)C(=O)N[C@@H](CC(=O)OCc1ccccc1)CN1CCc2cc(F)ccc21 [Compound 261, (S,S)-3-(2-tert-Butoxycarbonylamino-3-cyclohexyl-propionylamino)-4-(5-fluoro-2,3-dihydro-indol-1-yl)-butyric acid benzyl ester] | < 100 nM
4 | Cn1cnc(C(=O)N[C@@H](CC2CCCCC2)C(=O)NCCN2CCc3cc(F)ccc32)c1 [Compound 63, 1-Methyl-1H-imidazole-4-carboxylic acid (S)-{2-cyclohexyl-1-[2-(5-fluoro-2,3-dihydro-indol-1-yl)-ethylcarbamoyl]-ethyl}-amide] | < 1000 nM
5 | COc1ccc(N[C@@H]2CCCC[C@H]2NC(=O)[C@H](CC(C)C)NC(=O)c2cccc(C)c2)cc1 (mixture of isomers) [Compound 34, N-{1-(S)-[trans-2-(4-Methoxy-phenylamino)-cyclohexylcarbamoyl]-3-methyl-butyl}-3-methyl-benzamide] | < 1000 nM
6 | C[C@@H](CNc1ccc(S(C)(=O)=O)cc1)NC(=O)[C@H](CC1CCCCC1)NC(=O)c1ccc(-c2cccc(F)c2)o1 [Compound 89, 5-(3-Fluoro-phenyl)-furan-2-carboxylic acid {2-cyclohexyl-1-(S)-[2-(4-methanesulfonyl-phenylamino)-1-(S)-methyl-ethylcarbamoyl]-ethyl}-amide] | < 100 nM
7 | (S)-3-Cyclohexyl-N-[2-(5-fluoro-2,3-dihydro-indol-1-yl)-ethyl]-2-(5-isoxazol-3-yl-thiophene-2-sulfonylamino)-propionamide [Compound 223] | < 1000 nM
8 | Cc1cccc(C(=O)N[C@@H](CC(C)C)C(=O)N[C@@H](CCC(=O)OCc2ccccc2)CN2CCc3cc(F)ccc32)c1 [Compound 42, (S,S)-5-(5-Fluoro-2,3-dihydro-indol-1-yl)-4-[4-methyl-2-(3-methyl-benzoylamino)-pentanoylamino]-pentanoic acid benzyl ester] | < 100 nM
9 | Cc1nnc(-c2cccc(S(=O)(=O)N[C@@H](CC3CCCCC3)C(=O)NCCN3CCc4cc(F)ccc43)c2)o1 [Compound 233, (S)-3-Cyclohexyl-N-[2-(5-fluoro-2,3-dihydro-indol-1-yl)-ethyl]-2-[3-(5-methyl-[1,3,4]oxadiazol-2-yl)-benzenesulfonylamino]-propionamide] | < 100 nM
10 | C[C@@H](C(=O)N[C@@H](CC1CCCCC1)C(=O)NCCN1CCc2cc(F)ccc21)c1ccccc1 [Compound 70, N-{2-cyclohexyl-1-(S)-[2-(5-fluoro-2,3-dihydro-indol-1-yl)-ethylcarbamoyl]-ethyl}-2-(R)-phenyl-propionamide] | < 100 nM
11 | C[C@@H](CNc1cccc(Cl)c1)NC(=O)[C@H](CC1CCCCC1)NC(=O)c1ccc(-c2cccc(F)c2)o1 [Compound 94, 5-(3-Fluoro-phenyl)-fuiran-2-carboxylic acid {1-(S)-[2-(3-chloro-phenylamino)-1-(S)-methyl-ethylcarbamoyl]-2-cyclohexyl-ethyl}-amide] | < 100 nM
12 | Cc1noc(C)c1S(=O)(=O)N[C@@H](CC1CCCCC1)C(=O)N[C@@H](C)CN1CCc2cc(F)ccc21 [Compound 263, (S,S)-3-Cyclohexyl-2-(3,5-dimethyl-isoxazole-4-sulfonylamino)-N-[2-(5-fluoro-2,3-dihydro-indol-1-yl)-1-methyl-ethyl]-propionamide] | < 100 nM
13 | COc1ccc(NCC(C)NC(=O)C(CC2CCCCC2)NC(=O)c2cccc(OC)c2)cc1 [Compound 26, N-{2-Cyclohexyl-(1S)-[2-(4-methoxy-phenylamino)-(1R)-methyl-ethylcarbamoyl]-ethyl}-3-methoxy-benzamide] | < 100 nM
14 | Cc1cc(NC[C@H](C)NC(=O)[C@H](CC2CCCCC2)NC(=O)c2ccc(-c3cccc(F)c3)o2)sn1 [Compound 267, 5-(3-Fluoro-phenyl)-furan-2-carboxylic acid {2-cyclohexyl-1-(S)-[1-(S)-methyl-2-(3-methyl-isothiazol-5-ylamino)-ethylcarbamoyl]-ethyl}-amide] | < 1000 nM
15 | COc1cccc(C(=O)N[C@@H](CCC2CCCCC2)C(=O)NCCN2CCc3cc(C#N)ccc32)c1 [Compound 12, (S)-N-{3-Cyclohexyl-1-[2-(5-cyano-2,3-dihydro-indol-1-yl)-ethylcarbamoyl]-propyl}-3-methoxy-benzamide] | < 10000 nM
16 | C[C@@H](CN1CCc2cc(F)ccc21)NC(=O)[C@H](CC1CCCCC1)NS(=O)(=O)c1ccccc1 [Compound 264, (S,S)-2-Benzenesulfonylamino-3-cyclohexyl-N-[2-(5-fluoro-2,3-dihydro-indol-1-yl)-1-methyl-ethyl]-propionamide] | < 100 nM
17 | O=C(NC(C(=O)NC(CO)CN1CCc2cc(F)ccc21)c1ccc(Cl)cc1Cl)c1ccco1 [Compound 209, N-(S)-((3-(5-fluoroindolin-1-yl)-1-hydroxypropan-2-(R)-ylcarbamoyl)(2,4-dichlorophenyl)methyl)furan-2-carboxamide] | < 100 nM
18 | O=C(NCCN1CCc2cc(F)ccc21)[C@H](CC1CCCCC1)NS(=O)(=O)c1ccc(Oc2ccccc2)cc1 [Compound 226, (S)-3-Cyclohexyl-N-[2-(5-fluoro-2,3-dihydro-indol-1-yl)-ethyl]-2-(4-phenoxy-benzenesulfonylamino)-propionamide] | < 100 nM
19 | CC(C(=O)N[C@@H](CC1CCCCC1)C(=O)NCCN1CCc2cc(F)ccc21)c1ccc(F)cc1 (stereo partly drawn) [Compound 62, N-{2-cyclohexyl-1-(S)-[2-(5-fluoro-2,3-dihydro-indol-1-yl)-ethylcarbamoyl]-ethyl}-2-(4-fluoro-phenyl)-propionamide] | < 1000 nM
20 | (S)-3-Cyclohexyl-N-[2-(5-fluoro-2,3-dihydro-indol-1-yl)-ethyl]-2-(5-methyl-1-phenyl-1H-pyrazole-4-sulfonylamino)-propionamide [Compound 222] | < 1000 nM
21 | O=C(N[C@@H](Cc1ccc(Cl)cc1)C(=O)NCCN1CCc2cc(F)ccc21)c1ccc(-c2cccc(C(F)(F)F)c2)o1 [Compound 198, N-((S)-1-(2-(5-fluoroindolin-1-yl)ethylcarbamoyl)-2-(4-chlorophenyl)ethyl)-5-(3-(trifluoromethyl)phenyl)furan-2-carboxamide] | < 1000 nM
